This is an account of results in patent US9102591B2, “Benzamides” (H. Lundbeck A/S, priority 2012, dated 2015).

Like-named read-outs stand apart in the source and are kept apart here.

One may read the IC50 as the concentration that gives 50% inhibition.

The target in this assay is P2X7 receptor (Homo sapiens (Human), UniProt Q99572). Nature of the assay: P2X7 FLIPR assay (BzATP-stimulated calcium fluorescence, antagonist IC50). The assay is classed as cell-based. As for the experimental part: This example illustrates representative assays for use in evaluating the test compounds for antagonist activity. Compounds of the present invention were tested in vitro for their ability to act as antagonists to the P2X7receptor. […]
Cells were plated to cell density of approximately 15,000 cells/well in 384-well assay plates (50 μl/well) with 1.5% low serum media (DMEM, 1.5% FBS, 1% L-glut (2 mM), 10 mM HUES, 1% P/S). Cells were plated 24 hours prior to assay. Cells expressing human, rat or mouse P2X7 receptor were assayed in the following manner.
Fluo-4 NW dye mix (Molecular Probes, Inc., Eugene, Oreg., USA) was prepared in buffer (see manufacturer's instructions). Cell plates were removed from the 37° C. incubator, the media discarded and then 30 μL of dye was added to each well. Plates were placed in the 37° C., non-CO2 incubator for 30 minutes and then room temperature for 30 minutes.
Compound mixtures (A) were added to assay plates containing cells and placed at room temperature for 30 minutes, then BzATP (B) was added. Fluorescence was read using the Tetra FLIPR® (Molecular Devices, Inc., Sunnyvale, Calif., USA) and IC50 values were calculated by standard methods to determine antagonist activity.

Sequence of P2X7 receptor (Q99572 whole entry): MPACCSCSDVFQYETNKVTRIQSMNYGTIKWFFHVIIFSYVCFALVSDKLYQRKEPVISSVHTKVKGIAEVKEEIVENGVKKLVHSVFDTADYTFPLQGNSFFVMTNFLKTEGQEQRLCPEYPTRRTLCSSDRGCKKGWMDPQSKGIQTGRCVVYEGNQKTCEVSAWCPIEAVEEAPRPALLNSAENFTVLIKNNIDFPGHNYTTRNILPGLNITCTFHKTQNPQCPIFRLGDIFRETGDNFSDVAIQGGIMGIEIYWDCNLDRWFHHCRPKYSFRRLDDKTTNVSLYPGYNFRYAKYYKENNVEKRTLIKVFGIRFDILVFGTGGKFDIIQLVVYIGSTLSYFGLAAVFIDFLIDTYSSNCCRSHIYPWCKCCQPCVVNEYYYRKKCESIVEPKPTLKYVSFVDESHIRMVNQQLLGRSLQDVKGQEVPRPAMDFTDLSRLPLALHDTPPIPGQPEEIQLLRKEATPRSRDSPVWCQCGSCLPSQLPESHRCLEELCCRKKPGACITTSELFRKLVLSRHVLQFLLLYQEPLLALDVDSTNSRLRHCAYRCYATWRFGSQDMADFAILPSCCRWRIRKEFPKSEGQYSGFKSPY

Turning to `COc1cccc(C(=O)NCC(CC2CC2)c2cnc(C(F)(F)F)nc2)c1C` (single isomer, unassigned; (+)) [(+)N-[3-cyclopropyl-2-[2-(trifluoromethyl)pyrimidin-5-yl]pro] [(+)N-[3-cyclopropyl-2-[2-(trifluoromethyl)pyrimidin-5-yl]propyl]-3-methoxy-2-methyl-benzamide], the IC50 is 0.009 µM.
The same measure, in the same setting: as for `Cc1ncc(C(CNC(=O)c2cccc(Cl)c2Cl)CC2(C(F)(F)F)CC2)cn1` (centres unmarked) [2,3-dichloro-N-[2-(2-methylpyrimidin-5-yl)-3-[1-(trifluorome] [2,3-dichloro-N-[2-(2-methylpyrimidin-5-yl)-3-[1-(trifluoromethyl)cyclopropyl]propyl]benzamide], the figure is 0.0071 µM; as for `O=C(NCC(c1ccc(Cl)cc1)C1CCOCC1)c1c(F)cccc1Cl` (centres unmarked) [2-chloro-N-[2-(4-chlorophenyl)-2-tetrahydropyran-4-yl-ethyl]-6-fluoro-benzamide], 0.03 µM; as for `O=C(NCC(c1ccc(F)cc1)c1cnc(C(F)(F)F)nc1)c1ccccc1Cl` (single isomer, unassigned; (+)) [(+)2-chloro-N-[2-(4-fluorophenyl)-2-[2-(trifluoromethyl)pyri] [(+)2-chloro-N-[2-(4-fluorophenyl)-2-[2-(trifluoromethyl)pyrimidin-5-yl]ethyl]benzamide], 0.0044 µM.
Consider `O=C(NCC(CC1CC1)c1ccc(C(F)(F)F)nc1)c1cccc(Cl)c1Cl` (centres unmarked) [2,3-dichloro-N-[3-cyclopropyl-2-[6-(trifluoromethyl)-3-pyrid] [2,3-dichloro-N-[3-cyclopropyl-2-[6-(trifluoromethyl)-3-pyridyl]propyl]benzamide], for which the IC50 amounted to 0.00055 µM.
`Cc1ccc(C(F)(F)F)cc1C(=O)NCC1(c2ccc(C(F)(F)F)nc2)CCC(F)(F)CC1` [N-((4,4-difluoro-1-(6-(trifluoromethyl)pyridin-3-yl)cyclohexyl)methyl)-2-methyl-5-(trifluoromethyl)benzamide]: the half-maximal inhibitory concentration (IC50) came to 0.039 µM.
Turning to `O=C(NCC1(c2ccc(Cl)cc2)CCOCC1)c1cccc(Cl)c1F` [3-Chloro-N-[4-(4-chloro-phenyl)-tetrahydro-pyran-4-ylmethyl]-2-fluoro-benzamide], the concentration for half-maximal inhibition (IC50) was 0.89 µM.
Turning to `O=C(NCC1(c2ccc(F)nc2)CCC(F)(F)CC1)c1cccc(F)c1F` [N-((4,4-difluoro-1-(6-fluoropyridin-3-yl)cyclohexyl)methyl)-2,3-difluorobenzamide], the IC50 was 0.29 µM.
In the case of `O=C(NCC(c1ccc(F)cc1)c1ccc(C(F)(F)F)nc1)c1c(F)cccc1Cl` (single isomer, unassigned; (-)) [(−)2-chloro-6-fluoro-N-[2-(4-fluorophenyl)-2-[6-(trifluorome] [(−)2-chloro-6-fluoro-N-[2-(4-fluorophenyl)-2-[6-(trifluoromethyl)-3-pyridyl]ethyl]benzamide], the 50% inhibitory concentration (IC50) was 0.0085 µM.
As to `O=C(NCC(c1cnc(C(F)(F)F)nc1)C1CCOCC1)c1cccc(F)c1Cl` (single isomer, unassigned; (-)) [(−)2-chloro-3-fluoro-N-[2-tetrahydropyran-4-yl-2-[2-(trifluo] [(−)2-chloro-3-fluoro-N-[2-tetrahydropyran-4-yl-2-[2-(trifluoromethyl)pyrimidin-5-yl]ethyl]benzamide], the IC50 was determined as 0.064 µM.
For the compound `Cc1ncc(C2(C(C)NC(=O)c3cccc(Cl)c3Cl)CCC(F)(F)CC2)cn1` (centres unmarked) [2,3-dichloro-N-[1-[4,4-difluoro-1-(2-methylpyrimidin-5-yl)cyclohexyl]ethyl]benzamide], the IC50 was found to be 0.96 µM.
Still for that read-out and setting: as for `Cc1ncc(C2(C(C)NC(=O)c3c(F)cccc3Cl)CCC(F)(F)CC2)cn1` (centres unmarked) [2-chloro-N-[1-[4,4-difluoro-1-(2-methylpyrimidin-5-yl)cyclohexyl]ethyl]-6-fluoro-benzamide], the figure is 1.4 µM; as for `O=C(NCC(c1cnc(C(F)(F)F)nc1)C1CCOCC1)c1cccc(F)c1Cl` (single isomer, unassigned; (+)) [(+)2-chloro-3-fluoro-N-[2-tetrahydropyran-4-yl-2-[2-(trifluo] [(+)2-chloro-3-fluoro-N-[2-tetrahydropyran-4-yl-2-[2-(trifluoromethyl)pyrimidin-5-yl]ethyl]benzamide], 0.032 µM.
Consider `O=C(NCC(CC1CC1)c1ccc(C(F)(F)F)nc1)c1ccc(F)cc1Cl` (centres unmarked) [2-chloro-N-(3-cyclopropyl-2-(6-(trifluoromethyl)pyridin-3-yl)propyl)-4-fluorobenzamide], for which the IC50 came to 0.31 µM.
Turning to `CC(NC(=O)c1cccc(Cl)c1Cl)C1(c2ccc(Br)nc2)CCC(F)(F)CC1` (centres unmarked) [N-(1-(1-(6-bromopyridin-3-yl)-4,4-difluorocyclohexyl)ethyl)-2,3-dichlorobenzamide], the IC50 is 0.043 µM.
Consider `Cc1ncc(C(CNC(=O)c2ccccc2Cl)CC2(C(F)(F)F)CC2)cn1` (single isomer, unassigned; (-)) [(−)2-chloro-N-[2-(2-methylpyrimidin-5-yl)-3-[1-(trifluoromet] [(−)2-chloro-N-[2-(2-methylpyrimidin-5-yl)-3-[1-(trifluoromethyl)cyclopropyl]propyl]benzamide], for which the IC50 is 0.65 µM.
As to `O=C(NCC(c1ccc(F)cc1)c1ccc(C(F)(F)F)nc1)c1cccc(Cl)c1Cl` (single isomer, unassigned; (+)) [(+)2,3-dichloro-N-[2-(4-fluorophenyl)-2-[6-(trifluoromethyl)] [(+)2,3-dichloro-N-[2-(4-fluorophenyl)-2-[6-(trifluoromethyl)-3-pyridyl]ethyl]benzamide], the IC50 is 0.012 µM.
Regarding `O=C(NCC(CC1CC1)c1ccc(C(F)(F)F)nc1)c1ccccc1Cl` (single isomer, unassigned; (+)) [Example 4a, (+)-2-Chloro-N-[3-cyclopropyl-2-[6-(tiifluoromethyl)-3-pyridyl]propyl]benzamide], the IC50 (listed as (+)2-chloro-N-[3-cyclopropyl-2-[6-(trifluoromethyl)-3-pyridyl]propyl]benzamide) turned out to be 0.063 µM.
Take `Cc1ncc(C(CNC(=O)c2ccccc2Cl)C2CCOCC2)cn1` (single isomer, unassigned; (-)) [(−)2-chloro-N-[2-(2-methylpyrimidin-5-yl)-2-tetrahydropyran-] [(−)2-chloro-N-[2-(2-methylpyrimidin-5-yl)-2-tetrahydropyran-4-yl-ethyl]benzamide]: the half-inhibitory concentration (IC50) was found to be 0.57 µM.
Consider `O=C(NCC(c1ccc(Cl)cc1)C1CCOCC1)c1cccc(F)c1Cl` (centres unmarked) [2-chloro-N-[2-(4-chlorophenyl)-2-tetrahydropyran-4-yl-ethyl]-3-fluoro-benzamide], for which the IC50 was found to be 0.015 µM.
For the compound `O=C(NCC(CC1CC1)c1ccc(C(F)(F)F)nc1)c1cccc(Cl)c1F` (centres unmarked) [3-chloro-N-(3-cyclopropyl-2-(6-(trifluoromethyl)pyridin-3-yl)propyl)-2-fluorobenzamide], the IC50 came out at 0.66 µM.
Turning to `O=C(NCC1(c2ccc(F)nc2)CCC(F)(F)CC1)c1c(F)cccc1Cl` [2-chloro-N-[[4,4-difluoro-1-(6-fluoro-3-pyridyl)cyclohexyl]methyl]-6-fluoro-benzamide], the half-maximal inhibitory concentration (IC50) was 0.014 µM.
With `O=C(NCC(c1ccc(F)cc1)c1ccc(C(F)(F)F)nc1)c1cccc(F)c1Cl` (single isomer, unassigned; (-)) [(−)2-chloro-3-fluoro-N-[2-(4-fluorophenyl)-2-[6-(trifluorome] [(−)2-chloro-3-fluoro-N-[2-(4-fluorophenyl)-2-[6-(trifluoromethyl)-3-pyridyl]ethyl]benzamide], the IC50 turned out to be 0.007 µM.
`Cc1cn(C2(CNC(=O)c3cccc(Cl)c3Cl)CCC(F)(F)CC2)cn1` [2,3-dichloro-N-((4,4-difluoro-1-(4-methyl-1H-imidazol-1-yl)cyclohexyl)methyl)benzamide]: the IC50 is 0.09 µM.
As to `O=C(NCC(CC1CC1)c1ccc(C(F)(F)F)nc1)c1cccc(C(F)(F)F)c1Cl` (single isomer, unassigned; (+)) [(+)2-chloro-N-[3-cyclopropyl-2-[6-(trifluoromethyl)-3-pyridy] [(+)2-chloro-N-[3-cyclopropyl-2-[6-(trifluoromethyl)-3-pyridyl]propyl]-3-(trifluoromethyl)benzamide], the IC50 stood at 1.1 µM.
As for `O=C(NCC(c1ccc(F)cc1)c1ccc(C(F)(F)F)nc1)c1cccc(F)c1Cl` (single isomer, unassigned; (+)) [(+)2-chloro-3-fluoro-N-[2-(4-fluorophenyl)-2-[6-(trifluorome] [(+)2-chloro-3-fluoro-N-[2-(4-fluorophenyl)-2-[6-(trifluoromethyl)-3-pyridyl]ethyl]benzamide], the IC50 was found to be 0.0046 µM.
Take `O=C(NCC(CC1CC1)c1ccc(C(F)F)nc1)c1cccc(Cl)c1Cl` (single isomer, unassigned; (+)) [(+)2,3-dichloro-N-[3-cyclopropyl-2-[6-(difluoromethyl)-3-pyridyl]propyl]benzamide]: the IC50 was determined as 0.024 µM.
The same measure, in the same setting: the figure for `Cc1ncc(C(CNC(=O)c2c(Cl)cccc2Cl)CC2CC2)cn1` (single isomer, unassigned; (+)) [(+)2,6-dichloro-N-[3-cyclopropyl-2-(2-methylpyrimidin-5-yl)p] [(+)2,6-dichloro-N-[3-cyclopropyl-2-(2-methylpyrimidin-5-yl)propyl]benzamide] is 0.22 µM; for `O=C(NCC1(c2cnc(C(F)(F)F)nc2)CCOCC1)c1cccc(Cl)c1Cl` [2,3-dichloro-N-[[4-[2-(trifluoromethyl)pyrimidin-5-yl]tetrahydropyran-4-yl]methyl]benzamide] it is 0.25 µM.
